Results taken from PubChem BioAssay AID588398 (Broad Institute, 2011).
Results filed as inconclusive are left out.

Assay: LMP1 TES1 pathway selectivity over dsRED control – imaging, HEK293T, dual-color eGFP/dsRED, cherry-picks, selectivity assay for LMP1 NF-kB inhibitor project, dose response (AID 588398)
Conditions: HEK293T LMP1 TES1-eGFP reporter, 48 h, dsRED channel counter-screen
`CCN1CCN(Cc2ccc(NC(=O)c3ccc(C)c(NC(=O)c4ccno4)c3)cc2C(F)(F)F)CC1` gave an AC50 of 0.0579 µM.
Compound `CC1CC(C)C(=O)C(C(CC2CC(=O)NC(=O)C2)OC(=O)CC(=O)c2ccccc2)C1` (stereo not given) has an AC50 of 5.02 µM.
Compound `CC(C)(O)C#Cc1ccc([C@@H]2C[C@H]3CN(c4ccccc4)C(=O)[C@]34CCCN24)s1` has an AC50 of 14.9 µM.
With `C=CCn1c(C)c(C(C)=O)c(N2CCN(C(c3ccccc3)c3ccccc3)CC2)nc1=S` the AC50 was greater than 19.5 µM.
For `COC(=O)[C@@]1(Cc2ccccc2)[C@H]2C(=O)N(Cc3ccccc3)C(=O)[C@H]2[C@H]2CN=C(SCc3ccc(Cl)cc3)N21`, the AC50 was 2.49 µM.
`CCOC(=O)/C=C(\C)Sc1cc(=O)oc2ccccc12` showed an AC50 of 8.75 µM.
Compound `O=c1c(O)c(-c2ccc(O)c(O)c2)oc2cc(O)cc(O)c12` has an AC50 greater than 19.5 µM.
With `COc1ccc(-c2csc3ncnc(Sc4nnnn4C)c23)cc1` the AC50 was 10.5 µM.
`CCn1c2ccccc2c2cc(/C=N/NC(=O)c3ccncc3)ccc21` gave an AC50 of 1.68 µM.
`Cc1ccc(C(=O)Nc2cccc(C(F)(F)F)c2)cc1Nc1ncnc2nc[nH]c12` gave an AC50 of 9.97 µM.
Work on `CCCCC(=O)NC(c1ccc(OC)c(OC)c1)c1ccc2cccnc2c1O` (stereo not given) yielded an AC50 of 13.6 µM.
`CC1Cc2ccccc2N1c1ncnc(N)c1[N+](=O)[O-]` (stereo not given) gave an AC50 of 0.411 µM.
With `Cc1cc(C)n(-c2ccc(NN=C(C#N)C#N)cc2)n1` the AC50 was 5.01 µM.
`Oc1ccc(C=NNC(=S)Nc2ccccc2)nc1` showed an AC50 of 11.1 µM.
With `C#CCN(C[C@@H]1[C@@H](OC(=O)NCC2CCCCC2)[C@@H](OC(=O)NCC2CCCCC2)Cn2c(=O)ccc(=O)n21)S(=O)(=O)c1ccc(C)cc1` the AC50 was 2.83 µM.
`COc1ccc(N2Cc3ccccc3C2=O)cc1` gave an AC50 greater than 19.5 µM.
Compound `COc1ccc(-c2csc(Nc3cccc(C)n3)n2)cc1OC` has an AC50 greater than 19.5 µM.
`S=C(NN=Cc1ccccn1)Nc1ccccn1` showed an AC50 greater than 19.5 µM.
For `CC(=NNC(=S)Nc1ccccc1)c1ccccn1`, the AC50 was 1.37 µM.
With `CC(=C/c1ccccc1)/C=N/n1c(-c2ccncc2)n[nH]c1=S` the AC50 was 1.3 µM.
With `Oc1ccc2ccccc2c1N=Nc1ccccn1` the AC50 was 7.53 µM.
`COc1cccc(/C=N/Nc2ncnc(Cl)c2N)c1O` gave an AC50 of 3.08 µM.
In the case of `CCC(=O)NC(c1ccc(C)cc1)c1ccc2cccnc2c1O` (stereo not given), the AC50 is reported as 3.61 µM.
Work on `CC(=NNc1nc2ccccc2o1)c1ncccn1` yielded an AC50 of 1.13 µM.
Compound `O=C(Nc1ccc(C(=O)N2CCOCC2)cc1)Nc1cccc(C(F)(F)F)c1` has an AC50 of 0.966 µM.
`COc1ccc(-c2csc3ncnc(NCCCO)c23)cc1` showed an AC50 of 4.81 µM.
With `NC(=S)N/N=C/c1ncc(C(F)(F)F)cc1Cl` the AC50 was 12.1 µM.
Work on `CC(=O)NC(c1ccc(Cl)cc1)c1ccc2cccnc2c1O` (stereo not given) yielded an AC50 of 4.14 µM.
In the case of `O=[N+]([O-])c1ccc2ncnc(N3CCN(Cc4ccc5c(c4)OCO5)CC3)c2c1`, the AC50 is reported as 2.87 µM.
`Cc1ccc2[nH]c3c(c2c1)CCCC3NC(=O)CCl` (stereo not given) gave an AC50 of 3.25 µM.
`CC(=NNc1nc2ccccc2s1)c1ncccn1` gave an AC50 of 7.33 µM.
`O=S(=O)(c1ccc2c(c1)C(=NO)c1cc(S(=O)(=O)N3CCCCC3)ccc1-2)N1CCCCC1` showed an AC50 greater than 19.5 µM.
`CCC(=O)NC(c1ccc(Cl)cc1Cl)c1ccc2cccnc2c1O` (stereo not given) showed an AC50 of 4.23 µM.
For `Cc1nn(-c2ccccc2)c(Cl)c1C(=O)N1CCN(c2ncnc3c2cnn3-c2ccccc2)CC1`, the AC50 was 12.9 µM.
Compound `CC(=NNC(=S)Nc1ccccc1Cl)c1ccccn1` has an AC50 of 1.37 µM.
With `CC(=NNC(=S)N1CC2CCC(CC2)C1)c1nccs1` the AC50 was 4.15 µM.
`COc1cccc(/C=N/Nc2nccnc2Cl)c1O` gave an AC50 of 12.1 µM.
For `COc1ccc(C=C2CS(=O)(=O)CC(=Cc3ccc(OC)cc3)C2=O)cc1`, the AC50 was 1.61 µM.
For `COc1cccc(/C=N/NC(=O)c2[nH]nc3c2CCc2ccccc2-3)c1O`, the AC50 was 5.87 µM.
Work on `C=C1C(=O)C2=CC1CCC(=O)C1(C)CCC(OC(C)=O)C(C)(C)C1CC2O` (stereo not given) yielded an AC50 of 2.73 µM.
With `CCC(C)Nc1nc(-c2ccccn2)nc2ccccc12` (stereo not given) the AC50 was 8.45 µM.
`N#CC(C#N)=NNc1ccc(-n2ccc(C(F)(F)F)n2)cc1` gave an AC50 of 6.47 µM.
With `NC(=S)NN=Cc1nccc2c(C(F)(F)C(F)(F)C(F)(F)F)cccc12` the AC50 was 1.27 µM.
Compound `c1nc(NCc2ccc3c(c2)OCO3)c2cc(-c3ccoc3)ccc2n1` has an AC50 of 1.56 µM.
Work on `COc1ccc(N/N=C/c2c(C(=O)O)ccc3ccccc23)cc1` yielded an AC50 of 12.4 µM.
In the case of `CCOc1ccc(Nc2ncnc3ccc([N+](=O)[O-])cc23)cc1`, the AC50 is reported as 1.93 µM.
Compound `CCCC(=O)NC(c1ccc(C)cc1)c1ccc2cccnc2c1O` (stereo not given) has an AC50 of 4.12 µM.
For `CCC(=O)NC(c1cc(Cl)c2cccnc2c1O)C1CC1` (stereo not given), the AC50 was 13 µM.
`COc1ccc(-n2c(C)c([N+](=O)[O-])c3ccc(O)c(CN(C)C)c32)cc1` gave an AC50 of 0.665 µM.
`CS(=O)(=O)c1ccc(Sc2nc3ccccc3s2)c([N+](=O)[O-])c1` showed an AC50 of 3.22 µM.
In the case of `CC(=O)NC(c1ccc(Cl)cc1Cl)c1ccc2cccnc2c1O` (stereo not given), the AC50 is reported as 5.82 µM.
Compound `CCn1c2ccccc2c2cc(/C=N/n3c(-c4cc(C)[nH]n4)n[nH]c3=S)ccc21` has an AC50 of 0.862 µM.
`C#CCN(C[C@@H]1[C@@H](OC(=O)NCc2ccccc2F)[C@@H](OC(=O)NCc2ccccc2F)Cn2c(=O)ccc(=O)n21)S(=O)(=O)c1ccc(C)cc1` gave an AC50 of 3.9 µM.
Compound `O=C(N/N=C/c1sc2ccccc2c1O)c1cccc2ccccc12` has an AC50 of 4.27 µM.
For `O=C(N/N=C/c1ccc(O)cc1O)c1ccc(CN2C(=O)c3cccc4cccc2c34)cc1`, the AC50 was 12.7 µM.
Work on `O=Cc1ccc(-c2cccs2)s1` yielded an AC50 of 2.71 µM.
For `CCN(CC)c1ccc(/C=N/NC(=O)c2ccc3nc[nH]c3c2)c(O)c1`, the AC50 was 16.9 µM.
For `CC(=NNc1nc2ccccc2o1)c1cc2ccccc2cn1`, the AC50 was 3.99 µM.
Work on `O=C(N/N=C/c1c(O)ccc2ccccc12)c1cccnc1` yielded an AC50 of 4.3 µM.
`NC(=S)NN=Cc1nccc2c(C(F)(F)F)cccc12` showed an AC50 of 4.06 µM.
Work on `COC(=O)[C@@]1(C)[C@H]2C(=O)N(Cc3ccccc3)C(=O)[C@H]2[C@H]2CN=C(SCc3ccc(Cl)cc3)N21` yielded an AC50 of 2.41 µM.
Compound `CCCN(CC)c1ncnc2[nH]ncc12` has an AC50 of 1.41 µM.
`Cc1cc(N2CCOCC2)c2c(N)c(Br)cc(C)c2n1` gave an AC50 of 3.34 µM.
`Cc1[nH]n(-c2ccc(Br)cc2)c(=O)c1/C=N/NC(=O)c1ccccc1` showed an AC50 of 11.2 µM.
With `c1ccc(C(=NNc2nc3ccccc3s2)c2ccccn2)cc1` the AC50 was 1.48 µM.
`O=C(CF)N(O)c1ccc(C=Cc2ccccc2)cc1` gave an AC50 of 1.51 µM.
`Cc1nnc(SCC(=O)N2CCC(c3noc4ccc(F)cc34)CC2)s1` showed an AC50 of 1.69 µM.
`CC1CCN(C(=O)/C(=C\c2cccs2)NC(=O)c2ccccc2)CC1` gave an AC50 greater than 19.5 µM.
`O=C(c1ccccc1)C(CCC(CN1CCOCC1)C(=O)c1ccccc1)CN1CCOCC1` (stereo not given) showed an AC50 of 1.99 µM.
In the case of `CC1=C(C(=O)OCc2ccc3c(c2)OCO3)C(c2ccc(Cl)cc2)NC(=O)N1` (stereo not given), the AC50 is reported as 0.1 µM.
Work on `CCOC(=O)c1c(-n2cccc2)sc2c1CCCC2=O` yielded an AC50 of 11 µM.
`Cc1cc(C)nc(N/C(=N\S(=O)(=O)Cc2ccccc2)Nc2ccccc2Br)n1` gave an AC50 of 18.1 µM.
Compound `COc1cccc(/C=N/Nc2nc3ccccc3[nH]2)c1O` has an AC50 of 12 µM.
Work on `COc1ccc(-n2c(C)c(C(C)=O)c3cc(OC(C)=O)ccc32)cc1` yielded an AC50 of 1 µM.
With `CC[C@]1(C(=O)OC)[C@H]2C(=O)N(Cc3ccccc3)C(=O)[C@H]2[C@H]2CN=C(SCc3ccc(C#N)cc3)N21` the AC50 was 2.82 µM.
`C/C(=N/NC(=O)c1ccc(C(C)(C)C)cc1)c1ccccn1` gave an AC50 of 14.3 µM.
In the case of `CN1CCN(/N=C/c2ccc(N(c3ccccc3)c3ccccc3)cc2)CC1`, the AC50 is reported as 0.505 µM.
For `CCOc1ccc(/C=C/[N+](=O)[O-])c2ccccc12`, the AC50 was 4.38 µM.
`Cc1nn(-c2ccccc2)c(Cl)c1C1C(C#N)=C(N)Oc2n[nH]c(C)c21` (stereo not given) gave an AC50 of 11.5 µM.
Work on `COc1cc(C=C2CCCC(=Cc3ccc(OCC4CO4)c(OC)c3)C2=O)ccc1OCC1CO1` (stereo not given) yielded an AC50 of 8.08 µM.
Compound `N#Cc1ncc(N=Cc2ccc(N(CCCl)CCCl)cc2)s1` has an AC50 of 12.6 µM.
Work on `C[n+]1c2n(c3ccccc31)N=C(c1cc(C(C)(C)C)c(O)c(C(C)(C)C)c1)CS2` yielded an AC50 of 10.8 µM.
With `O=C(N/N=C/c1cc2c3c(c1O)CCCN3CCC2)c1ccccc1O` the AC50 was 8.25 µM.
Compound `CNc1cccnc1C=NNC(N)=S` has an AC50 of 12.8 µM.
`O=C(NN=Cc1ccc(N(CCCl)CCCl)cc1Cl)c1cccnc1` gave an AC50 of 1.58 µM.
With `Cc1ccccc1C(=O)N1CCN(c2ccc(NC(=O)CSc3ccc(Cl)cc3)cc2)CC1` the AC50 was 0.253 µM.
With `Cc1ccc(-c2csc(=Nc3cccnc3)n2CCCn2ccnc2)cc1C` the AC50 was 5.1 µM.
`CN(CCNC(=O)C1CCN(S(=O)(=O)N2CCOCC2)CC1)CCc1ccccc1` showed an AC50 greater than 19.5 µM.
Work on `NC(=O)c1sc2nccc(Nc3ccccc3)c2c1N` yielded an AC50 of 4.04 µM.
`O=C(N/N=C/c1ccc[nH]1)c1ccc(COc2cccc3cccnc23)cc1` showed an AC50 of 19.2 µM.
Work on `Cc1cc(=O)[nH]c(NN=Cc2cc(Br)ccc2O)n1` yielded an AC50 of 8.82 µM.
Work on `N#CC(C#N)c1ccnc2ccccc12` yielded an AC50 of 6.14 µM.
`CC[C@]1(C(=O)OC)[C@H]2C(=O)N(Cc3ccccc3)C(=O)[C@H]2[C@H]2CN=C(SCc3ccc(Cl)cc3)N21` gave an AC50 of 1.32 µM.
Work on `OCCCNc1nccc(-c2cc(Nc3cccc(Cl)c3)ncn2)n1` yielded an AC50 of 4.72 µM.
`CN1C(=O)N(C)c2ccc(C=O)c3cccc1c23` showed an AC50 of 12.9 µM.
In the case of `CCN(CC)S(=O)(=O)c1ccc(N/N=C/c2ccc(O)cc2O)nc1`, the AC50 is reported as 4.19 µM.
In the case of `CCCC(=O)NC(c1ccc(C(C)C)cc1)c1ccc2cccnc2c1O` (stereo not given), the AC50 is reported as 4.16 µM.
For `CCn1c2ccccc2c2cc(/C=N/NC(=O)c3cc(O)cc(O)c3)ccc21`, the AC50 was 2.14 µM.
Work on `CC(=NNC(=S)N1CCCC1)c1ccccn1` yielded an AC50 of 17.8 µM.
In the case of `COc1cc([C@@H]2c3cc4c(cc3[C@@H](O[C@@H]3O[C@@H]5CO[C@@H](C)O[C@H]5[C@H](O)[C@H]3O)[C@H]3COC(=O)[C@H]23)OCO4)cc(OC)c1O`, the AC50 is reported as 14.5 µM.
